In series [1] the target is T1, EGFR (Mus musculus, UniProt Q01279).
T1 construct: endogenous in cells; host or cells: Raw264.7
Nature of the series: LDNPs-mediated EGFR activation in LPS-treated Raw264.7 cells with AG1478. Type of series: cell-based. Particulars: AG1478 150 nM. The procedure: (§1) Real-time quantitative PCR Total mRNA was extracted from mouse liver and intestine tissues using Trizol reagent (Life Technologies, Carlsbad, California, United States of America) according to the manufacturer's instruction and reverse-transcribed using cDNA Supermix (QuantaBio, Beverly, Massachusetts, United States of America). 18S and Gapdh were used as internal controls. Real-time qPCR was performed on an ABI 7300 fast real-time PCR thermocycler, where SYBR green PCR Master Mix (Applied Biosystems, Foster City, California, United States of America) was used. The relative gene expression was determined by the ΔΔCT method.
Raw264.7 cells were pretreated with LDNPs (0.2 μg/ml) or the EGFR inhibitor AG1478 (150 nM) for 20 hours and then treated with LPS for 4 hours to induce inflammation response as depicted in the top panel of the FIG. 13A. The bottom panel of FIG. 13A is a representative western blot of phosphorylated EGFR (P-EGFR Tyr 1068), Total-EGFR, PI3K, phosphorylated Akt (P-Akt), total-Akt, phosphorylated NF-κB (P-NF-κB), and β-actin showing that expression of several of these proteins were modulated by LDNP treatment.

For series [2], the system named is AhR. Nature of the series: ALD mouse model with AhR inhibitor CH223191 co-administration. Type of series: in vivo. The procedure: Animals and treatments. C57BL/6J mice (6-8 weeks of age) from Jackson Laboratory (Bar Harbor, Maine, United States of America) were maintained at 22° C. with a 12 hour light/dark cycle and initially had free access to a normal chow diet and tap water. Mice were then fed the Lieber DeCarli Diet containing 5% alcohol (w/v) (Alcohol-fed, AF) or isocaloric maltose dextrin (Pair-fed, PF). For the AF groups, mice were initially fed the control Lieber-DeCarli liquid diet (Bio-Serve, Flemington, New Jersey, United States of America) for 5 days to acclimate to the liquid diet. […] Mice in PF group were fed isocaloric maltose dextrin in substitution for alcohol in the liquid diet. On experimental Day 10, a bolus of EtOH (5 g/kg body weight) was given to AF mice by gavage 9 hours before harvesting, while mice in PF groups received a gavage of isocaloric maltose dextrin (10d+1b model). LDNPs were administered to mice in the last 3 days by daily gavage of 200 μL of LDNPs (50 μg protein content). AhR inhibitor, CH223191 (Sigma-Aldrich, St. Louis, Missouri, United States of America) was gavaged at […] in last three days. Control mice were gavaged with an equal volume of control vehicle (PBS).
Whether the beneficial effects of LDNPs in ALD were mediated by the intestinal AhR pathway was tested by administrating the AhR inhibitor CH223191 to alcohol-fed mice. […] Importantly, the suppressive effect on hepatic fat by LDNP treatment was blunted when CH223191 was co-administered.

Series [3] relates to lamina propria lymphocytes (LPLs). Kind of series: AhR signaling in lamina propria lymphocytes. It counts as cell-based, mouse. The settings on record: AhR inhibitor 10 μM.
The subject of series [4] is Caco-2 cells. Kind of series: Tight junction, Cyp1a1 and Nrf2 expression in Caco-2 cells. It counts as cell-based, human. The procedure: as §1
Western Blotting. Protein was extracted from frozen intestine tissues. Western blotting was performed as described in (Shao et al. (2018) Intestinal HIF-1α deletion exacerbates alcoholic liver disease by inducing intestinal dysbiosis and barrier dysfunction. Journal of Hepatology 69:886-895). Antibodies used for western blotting for proteins ZO-1, Occludin, and Claudin-1 were from Cell Signaling (Danvers, Massachusetts, United States of America). Nrf-2, β-actin and Histone H3 antibodies were purchased from Abcam (Cambridge, Massachusetts, United States of America). For western blotting in Caco-2 cell derived NPs and LDNPs, CD 63 antibody from System Bioscience (Palo Alto, California, United States of America) was used.
Cell culture. Mouse macrophages RAW 264.7 and the human intestinal epithelial cells Caco-2 were maintained in DMEM-high glucose and EMEM-high glucose (Corning; 10-009CV) respectively. The medium was supplemented with 10% fetal bovine serum, 1X penicillin-streptomycin solution (100U/ml penicillin, and 100 μg/ml streptomycin; Sigma Aldrich) in a humidified atmosphere (5% CO2, 95% air, 37° C.). Peritoneal macrophages and bone marrow-derived macrophages (BMDM) were isolated from mice as described in (Ying et al. (2013) Investigation of Macrophage Polarization Using Bone Marrow Derived Macrophages. Journal of Visualized Experiments 76:50323.). Isolated BMDM were then cultured in modified DMEM medium with macrophage colony-stimulating factor (M-CSF), which is a cytokine that directs cell differentiation. Cells were utilized for experimentation at 70-80% confluence. RAW264.7, peritoneal macrophages (PMs) and bone marrow-derived macrophages (BMDMs) were pretreated with LDNPs (0.2 μg/ml for 20 hours) and then treated with E. coli-derived lipopolysaccharides (LPS; O55:B5; Sigma) at 100 ng/mL concentration for 4 hours. Caco-2 cells at 70-80% confluence were treated with LDNPs (0.2 μg/ml), I3A (0.1 mM), the AhR inhibitor, CH-223191 (10 μM) or Nrf2 inhibitor, ML385 (5 μM) for 24 hours. Lamina propria lymphocytes (LPLs) were treated with LDNPs (0.2 μg/ml), I3A (0.1 mM) or the AhR inhibitor, CH223191 (10 μM) for 24 hours.
Measurement of Cvp1A1 enzyme activity in vitro. Caco-2 cells (50,000 cells/well) were plated in a 48-well plate. Cells were then treated with LDNPs (0.2 μg/ml) or Indole-3-aldehyde (I3A, 0.1 mM) for 24 hours. After treatment, cells were washed to remove any residual LDNPs or I3A, then the wells were replenished with fresh medium containing Cyp1A1 substrate as per the protocol provided with a P450-GLO™ CYP1A1 Assay System brand kit (Promega Corporation, Madison, Wisconsin, United States of America) for 3 hours. After incubation, 25 μl of culture medium was removed from each well and transferred to a 96-well white opaque plate and 25 μl of luciferin detection reagent was added to initiate the luminescence reaction and plate was incubated at room temperature for 20 minutes. After incubation, luminescence was recorded using a luminometer. The data were reported as foldchange over vehicle treatment.

[5] abbreviates: alcohol-fed, CH223191 co-administered.
Where [6] appears, read: alcohol-fed, co-fed with CH223191.
[7] abbreviates: Caco-2, LDNPs 0.2 μg/ml, I3A 0.1 mM, 24 hours.

T1 sequence (Q01279 25-1210): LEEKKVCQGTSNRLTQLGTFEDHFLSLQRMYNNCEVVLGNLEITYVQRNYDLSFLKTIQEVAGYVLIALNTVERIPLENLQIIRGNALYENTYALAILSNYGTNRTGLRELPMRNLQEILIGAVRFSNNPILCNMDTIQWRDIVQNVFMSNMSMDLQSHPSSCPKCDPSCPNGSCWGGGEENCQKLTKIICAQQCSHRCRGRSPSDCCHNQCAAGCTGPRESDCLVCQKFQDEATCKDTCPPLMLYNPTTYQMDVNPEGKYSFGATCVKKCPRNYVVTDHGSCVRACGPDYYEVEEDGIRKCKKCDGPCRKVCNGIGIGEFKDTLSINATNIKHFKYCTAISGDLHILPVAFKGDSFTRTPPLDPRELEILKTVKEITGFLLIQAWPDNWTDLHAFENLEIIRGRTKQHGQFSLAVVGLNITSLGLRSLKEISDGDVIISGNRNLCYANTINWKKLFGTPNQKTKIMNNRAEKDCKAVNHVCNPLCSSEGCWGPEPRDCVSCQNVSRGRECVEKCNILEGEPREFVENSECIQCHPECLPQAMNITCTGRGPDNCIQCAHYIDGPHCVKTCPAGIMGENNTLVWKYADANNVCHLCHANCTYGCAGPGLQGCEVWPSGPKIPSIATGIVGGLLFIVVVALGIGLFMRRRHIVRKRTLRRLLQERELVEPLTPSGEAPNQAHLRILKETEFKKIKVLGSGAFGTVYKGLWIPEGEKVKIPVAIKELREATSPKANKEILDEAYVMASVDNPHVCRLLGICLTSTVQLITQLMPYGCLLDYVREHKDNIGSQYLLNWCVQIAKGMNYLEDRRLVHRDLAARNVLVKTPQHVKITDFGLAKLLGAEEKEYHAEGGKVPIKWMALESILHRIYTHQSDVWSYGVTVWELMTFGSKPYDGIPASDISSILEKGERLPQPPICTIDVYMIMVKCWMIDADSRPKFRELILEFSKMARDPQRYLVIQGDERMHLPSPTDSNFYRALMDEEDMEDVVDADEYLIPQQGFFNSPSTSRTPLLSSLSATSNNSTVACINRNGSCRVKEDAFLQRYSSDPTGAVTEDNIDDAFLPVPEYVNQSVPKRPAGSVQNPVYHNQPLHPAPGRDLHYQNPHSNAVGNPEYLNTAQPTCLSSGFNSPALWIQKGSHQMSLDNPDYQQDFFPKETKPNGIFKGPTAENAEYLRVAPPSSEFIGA

Turning to `COc1cc2ncnc(Nc3cccc(Cl)c3)c2cc1OC` [AG1478], in series [1], the “LDNP-mediated reduction of IL-1β mRNA” value was “inhibited” and the “LDNP-mediated reduction of TNF-α mRNA” value is recorded as “inhibited”.

In the case of `Cc1ccccc1N=Nc1ccc(NC(=O)c2ccnn2C)c(C)c1` [CH223191], in series [2] (AF mice, agent alone), the “ileum Nqo1 mRNA expression” value was “reduced” and the “ileum Nrf2 mRNA expression” value was “reduced”. Besides, in series [2] (setting [5]), the “LDNP-induced increase of IL-22 protein” value was “completely inhibited”, the “LDNP-induced increase of Il22 mRNA” value was “completely inhibited”, the “suppressive effect of LDNP treatment on hepatic fat” value is “blunted” and the “upregulation of Reg3g by LDNPs” value is recorded as “blocked”. The “ileum Cyp1a1 mRNA expression” value in series [2] (alcohol-fed, LDNPs gavaged with the inhibitor) is “no change”. Further, in series [2] (alcohol-fed, agent alone), the IL-22 protein expression entry is listed as “reduced”, the hepatic bacteria load result is recorded as “significantly increased”, the hepatic fat accumulation result is on record as “significantly increased” and the “ileum Cyp1a1 mRNA expression” value is on record as “reduced”. In series [2] (alcohol-fed, agent alone), the “ileum Il22 mRNA expression” value was “reduced”, the “ileum Reg3g mRNA expression” value is “reduced”, the “serum ALT” value was “slightly increased” and the “serum AST” value is “slightly increased”. Also, in series [2] (setting [6]), the “effects of LDNPs on serum ALT” value is recorded as “blocked” and the “effects of LDNPs on serum AST” value is “blocked”. The “effect of LDNPs on hepatic bacteria load” value in series [2] (alcohol-fed, inhibitor co-administered) is listed as “blocked”. For the same compound, in series [3], the “LDNPs-induced Cyp1a1 mRNA expression” value is on record as “completely inhibited”, the “LDNPs-induced Il22 mRNA expression” value is reported as “completely inhibited” and the “LDNPs-induced upregulation of IL-22 protein” value is “completely inhibited”. In series [3] (listed as CH229131), the “LDNPs-induced Cyp1a1 mRNA expression” value is “blocked” and the “LDNPs-induced Il22 mRNA expression” value is given as “blocked”. In series [4], the “I3A-induced Cyp1a1 activity” value is given as “blocked”, the “I3A-induced Cyp1a1 mRNA expression” value is recorded as “blocked”, the “LDNP-induced Cyp1a1 activity” value is on record as “blocked” and the “LDNP-induced Cyp1a1 mRNA expression” value was “blocked”. In series [4], the “LDNP-induced Nrf2 mRNA expression” value is “blocked” and the “LDNP-induced Nrf2 protein expression” value is reported as “blocked”.

For `O=Cc1c[nH]c2ccccc12` [I3A, indole-3-aldehyde], in series [4] (Caco-2, LDNPs 0.2 μg/ml, I3A 0.1 mM), the “protein expression of tight junction proteins” value is on record as “increased”. In addition, in series [4] (setting [7]), the Cyp1a1 activity entry is given as “markedly increased” and the “Cyp1a1 mRNA expression” value was “markedly increased”.

`Cc1ccccc1C(=O)N1CCc2cc(-c3nc(NC(=O)Cc4ccc5c(c4)OCO5)sc3C)ccc21` [ML385]: in series [4], the “LDNP-induced Cyp1a1 activity” value is “not”, the “LDNP-induced Cyp1a1 mRNA expression” value is given as “blocked”, the “LDNP-induced Nrf2 mRNA expression” value is on record as “completely inhibited” and the “LDNP-induced Nrf2 protein expression” value was “completely inhibited”.
